Test results as given in patent EP1144624B1, “HUMAN AND MOUSE TREK-1 POTASSIUM CHANNEL PROTEIN AND THEIR USE” (CENTRE NATIONAL DE LA RECHERCHE SCIENTIFIQUE, priority 1999, dated 2000).

Columns and labels:
mouse TRAAK = test: Whole cell patch clamp of transfected COS cells expressing TRAAK; type: cell-based; conditions: voltage ramp from holding potential -80 mV, room temperature, 0.8 mM chloroform, 1 mM halothane, 2 mM isoflurane, 0.6 mM diethyl ether (Figs. 1-3)
Procedure: (§1) Subsequently, data were replayed and sampled using pClamp software.
General anesthetics were directly dissolved in saline solutions. All experiments were performed at room temperature (24°C). […] The electrophysiological measurements were performed within 45 minutes.
(§2) The actual concentrations of anesthetics were subsequently determined by means of a gas chromatography method (HP 6890 equipped with a DB624 column) using FID detection. Sampled (2.5 ml of solution) were collected prior to (t0) and after perfusion (t45) through the experimental setup. Solutions were collected using gas impermeable tubing and stored in sealed glass containers at 4°C for subsequent analysis. Samplings and measurements were performed in duplicate. […] In the dose effect curves, the threshold concentrations were estimated as concentrations producing an increase higher than 10% in current amplitude.

human TREK-1 channel = test: Whole cell patch clamp of transiently transfected COS cells expressing human TREK-1; type: cell-based
Source text: The functional properties of the human TREK-1 channel were studied on the basis of transfected COS cells temporarily expressing the protein. Like the murine channel, the human channel is selective for potassium and is activated by cis-unsaturated fatty acids, volatile anesthetics and by stretching of the plasma membrane. The currents are recordings in the whole-cell configuration of the patch-clamp technique (imposed potential gradient from -130 to +100 mV). The inverse potential of the currents follow the equilibrium potential of potassium when the extracellular concentration of potassium ions climbs from 5 to 155 mM. […] When a pressure of -66 mmHg is applied on the membrane, the TREK-1 currents are activated in a reversible manner.
as §1

Mouse TREK-1 = conditions: whole cell, voltage ramp from holding potential -80 mV, room temperature; 0.8 mM chloroform, 1 mM halothane, 2 mM isoflurane, 0.6 mM diethyl ether (Figs. 1-3)
Procedure: (§3) As performed herein, COS cells were seeded at a density of 20,000 cells per 35 mm dish 24 hours prior to transfection. Cells were transfected by the DEAE dextran protocol (1 µg DNA per plate). Mouse TREK-1 (GenBank Accession No. U73488), human TASK (GenBank Accession No. AF006823) and mouse TRAAK (GenBank Accession No. AF056492) fragments were amplified by polymerase chain reaction (PCR) and subcloned into the pIRES-CD8 vector. Transfected cells were visualized 48 hours after transfection using the anti-CD8 antibody coated beads method. For whole cell and excised patch experiments, the internal solution was 150 mM KCl, 3 mM MgCl2, 5mM EGTA and 10 mM HEPES at pH 7.2 with KOH and the external medium contained 150 mM NaCl, 5 mM KCL, 3 mM MgCl2, 1 mM CaCl2, 10 mM HEPES at pH 7.4 with NaOH. Cells were continuously superfused with a microperfusion system during the time course of the experiments (0.1 ml/min) performed at room temperature. A RK300 patch clamp amplifier (Biologic, Grenoble, France) was used for whole cell as well as single channel recordings. Ionic currents were monitored and recorded continuously using a DAT recorder (Biologic, Grenoble, France). Subsequently, data were replayed and sampled using pClamp software. Data analysis were performed using clampfit (pClamp) for whole cell recording as well as Biopatch (Biologic) software for single channel recordings. Membrane capacitance was measured during a […] hyperpolarizing step from a holding potential of -80 mV.
(§4) General anesthetics were directly dissolved in saline solutions. All experiments were performed at room temperature (24°C). Solutions were prepared every 3 hours in gas-tight bottles as stock solutions (calculated concentrations of 5 10 mM). Serial dilutions were prepared just prior to the electrophysiological experiment. 2.5 ml of each experimental solution at the desired concentration was placed in a syringe connected to the experimental superfusion system. The electrophysiological measurements were performed within 45 minutes.
as §2

human TASK = conditions: whole cell, voltage ramp from holding potential -80 mV, room temperature; 0.8 mM chloroform, 1 mM halothane, 2 mM isoflurane, 0.6 mM diethyl ether (Figs. 1-3)
Procedure: as §3, §4, §2

[1] = system: COS cells expressing TREK-1; conditions: 0.8 mM chloroform; not in mock-transfected cells, n = 5
Procedure: As performed herein, COS cells were seeded at a density of 20,000 cells per 35 mm dish 24 hours prior to transfection. Cells were transfected by the DEAE dextran protocol (1 µg DNA per plate). […] Transfected cells were visualized 48 hours after transfection using the anti-CD8 antibody coated beads method. For whole cell and excised patch experiments, the internal solution was 150 mM KCl, 3 mM MgCl2, 5mM EGTA and 10 mM HEPES at pH 7.2 with KOH and the external medium contained 150 mM NaCl, 5 mM KCL, 3 mM MgCl2, 1 mM CaCl2, 10 mM HEPES at pH 7.4 with NaOH. Cells were continuously superfused with a microperfusion system during the time course of the experiments (0.1 ml/min) performed at room temperature. A RK300 patch clamp amplifier (Biologic, Grenoble, France) was used for whole cell as well as single channel recordings. Ionic currents were monitored and recorded continuously using a DAT recorder (Biologic, Grenoble, France). Subsequently, data were replayed and sampled using pClamp software. […] Membrane capacitance was measured during a 10 V hyperpolarizing step from a holding potential of -80 mV. […]
General anesthetics were directly dissolved in saline solutions. […] Solutions were prepared every 3 hours in gas-tight bottles as stock solutions (calculated concentrations of 5 10 mM). […]

| SMILES | effect on TRAAK K+ current (mouse TRAAK) | effect on human TREK-1 currents (human TREK-1 channel; concentrations employed in general anesthesia) | effect on TREK-1 K+ current (Mouse TREK-1) | effect on TASK K+ current (human TASK) | effect on human TREK-1 currents (human TREK-1 channel; arachidonic acid 10 µM in the bath) | effect on membrane potential of COS cells expressing TREK-1 [1] |
| --- | --- | --- | --- | --- | --- | --- |
| FC(F)(F)C(Cl)Br (stereo not drawn) [halothane] | not TRAAK, were opened | induced activation | opened | opened |  |  |
| CCCCC/C=C\C/C=C\C/C=C\C/C=C\CCCC(=O)O [arachidonic acid] |  |  |  |  | induced activation |  |
| CCOCC [Diethyl ether, diethyl ether] | did not affect |  | opened | decreased |  |  |
| ClC(Cl)Cl [chloroform] | did not effect |  | strongly and reversibly activated | slightly depressed |  | reversibly and reproducibly hyperpolarized |
| FC(F)OC(Cl)C(F)(F)F (stereo not drawn) [Isoflurane, isoflurane] | without altering |  | activated | activated |  |  |
